# According to publication PMC6540285, “Evaluation of Protein Kinase Inhibitors with PLK4 Cross-Over Potential in a Pre-Clinical Model of Cancer” (International Journal of Molecular Sciences, 2019):
# What was measured:
# EPHA2 = EPHA2 (Homo sapiens, UniProt P29317); test: SelectScreen kinase profiling, ZLYTE; details: read-out: % Inhibition Avg
# MAPK8 (JNK1) = MAPK8 (JNK1) (Homo sapiens, UniProt P45983); test: SelectScreen kinase profiling, ZLYTE; assay type: biochemical
# ROS1 = ROS1 (Homo sapiens, UniProt P08922); test: SelectScreen kinase profiling, ZLYTE; assay type: biochemical; details: ROS1, 10 µM
# ALK L1196M = ALK L1196M (Homo sapiens, UniProt Q9UM73, L1196M); test: SelectScreen kinase profiling, LanthaScreen binding
# BRAF = BRAF (Homo sapiens, UniProt P15056); test: SelectScreen kinase profiling, ZLYTE; assay type: biochemical
# MAP3K10 (MLK2) = MAP3K10 (MLK2) (Homo sapiens, UniProt Q02779); test: SelectScreen kinase profiling, LanthaScreen binding
# ICK = ICK (Homo sapiens, UniProt Q9UPZ9); test: as above
# DCAMKL1 (DCLK1) = DCAMKL1 (DCLK1) (Homo sapiens, UniProt O15075); test: SelectScreen kinase profiling, ZLYTE; assay type: biochemical
# JAK2 JH1 JH2 = target: T1, JAK2 JH1 JH2 (Homo sapiens, UniProt O60674); test: SelectScreen kinase profiling, ZLYTE; assay type: biochemical; details: JAK2 JH1 JH2, 10 µM
# T1 construct: JAK2 JH1 JH2
# PI4K2B (PI4K2 beta) = PI4K2B (PI4K2 beta) (Homo sapiens, UniProt Q8TCG2); test: SelectScreen kinase profiling, Adapta; assay type: biochemical
# SPHK1 = SPHK1 (Homo sapiens, UniProt Q9NYA1); test: SelectScreen kinase profiling, Adapta; assay type: biochemical; details: SPHK1, 10 µM
# PHKG1 = PHKG1 (Homo sapiens, UniProt Q16816); test: SelectScreen kinase profiling, ZLYTE; assay type: biochemical; details: PHKG1, 10 µM
# PRKCD (PKC delta) = PRKCD (PKC delta) (Homo sapiens, UniProt Q05655); test: SelectScreen kinase profiling, ZLYTE; assay type: biochemical
# PRKACG (PRKAC gamma) = PRKACG (PRKAC gamma) (Homo sapiens, UniProt P22612); test: SelectScreen kinase profiling, LanthaScreen binding
# LTK (TYK1) = LTK (TYK1) (Homo sapiens, UniProt P29376); test: SelectScreen kinase profiling, ZLYTE; assay type: biochemical
# PTK6 (Brk) = PTK6 (Brk) (Homo sapiens, UniProt Q13882); test: SelectScreen kinase profiling, ZLYTE; assay type: biochemical
# Excerpt: (§1) Kinase Technology % Inhibition Avg Kinase Technology % Inhibition Avg
# (§2) STK23 (MSSK1) ZLYTE 59 TGFBR1 (ALK5) LanthaScreen 85
# (§3) STK24 (MST3) ZLYTE 85 TGFBR2 LanthaScreen 77
# (§4) STK25 (YSK1) ZLYTE 45 TLK1 LanthaScreen 4
# (§5) STK3 (MST2) ZLYTE 77 TLK2 LanthaScreen 33
# (§6) STK32B (YANK2) LanthaScreen 61 TNIK LanthaScreen 15
# (§7) STK32C (YANK3) LanthaScreen 62 TNK1 ZLYTE 94
# (§8) STK33 LanthaScreen 81 TNK2 (ACK) LanthaScreen 71
# (§9) STK38 (NDR) LanthaScreen 85 TTK LanthaScreen 54
# (§10) STK38L (NDR2) LanthaScreen 59 TXK ZLYTE 94
# (§11) STK39 (STLK3) LanthaScreen 38 TYK2 ZLYTE 99
# (§12) STK4 (MST1) ZLYTE 93 TYRO3 (RSE) ZLYTE 92
# (§13) SYK ZLYTE 98 ULK1 LanthaScreen 80
# (§14) TAOK1 LanthaScreen 82 ULK2 LanthaScreen 56
# (§15) TAOK2 (TAO1) ZLYTE 87 ULK3 LanthaScreen 5
# (§16) TAOK3 (JIK) LanthaScreen 25 VRK2 LanthaScreen 32
# (§17) TBK1 ZLYTE 99 WEE1 LanthaScreen 75
# (§18) TEC LanthaScreen -9 WNK1 LanthaScreen 2
# (§19) TEK (Tie2) ZLYTE 99 WNK2 LanthaScreen 1
# (§20) TEK (TIE2) R849W LanthaScreen -5 WNK3 LanthaScreen 7
# (§21) TEK (TIE2) Y897S ZLYTE 80 ZAK LanthaScreen 77
# (§22) TESK1 LanthaScreen 37 ZAP70 ZLYTE 24
# (§23) cleavage (Thermo Fisher Scientific, USA)
# MST1R (RON) = MST1R (RON) (Homo sapiens, UniProt Q04912); test: SelectScreen kinase profiling, ZLYTE; assay type: biochemical
# Excerpt: as §1, §2, §3, §4, §5, §6, §7, §8, §9, §10, §11, §12, §13, §14, §15, §16, §17, §18, §19, §20, §21, §22, §23
# GRK5 = GRK5 (Homo sapiens, UniProt P34947); test: SelectScreen kinase profiling, ZLYTE; assay type: biochemical; details: GRK5, 10 µM
# Excerpt: as §1, §2, §3, §4, §5, §6, §7, §8, §9, §10, §11, §12, §13, §14, §15, §16, §17, §18, §19, §20, §21, §22, §23
# PTK2 (FAK) = PTK2 (FAK) (Homo sapiens, UniProt Q05397); test: SelectScreen kinase profiling, ZLYTE; assay type: biochemical
# Excerpt: as §1, §2, §3, §4, §5, §6, §7, §8, §9, §10, §11, §12, §13, §14, §15, §16, §17, §18, §19, §20, §21, §22, §23
# PLK2 = PLK2 (Homo sapiens, UniProt Q9NYY3); test: SelectScreen kinase profiling, ZLYTE; assay type: biochemical; details: PLK2, 10 µM
# Excerpt: as §1, §2, §3, §4, §5, §6, §7, §8, §9, §10, §11, §12, §13, §14, §15, §16, §17, §18, §19, §20, §21, §22, §23
# BTK = BTK (Homo sapiens, UniProt Q06187); test: SelectScreen kinase profiling, ZLYTE; assay type: biochemical
# Excerpt: as §1, §2, §3, §4, §5, §6, §7, §8, §9, §10, §11, §12, §13, §14, §15, §16, §17, §18, §19, §20, §21, §22, §23
# INSRR (IRR) = INSRR (IRR) (Homo sapiens, UniProt P14616); test: SelectScreen kinase profiling, ZLYTE; assay type: biochemical
# Excerpt: as §1, §2, §3, §4, §5, §6, §7, §8, §9, §10, §11, §12, §13, §14, §15, §16, §17, §18, §19, §20, §21, §22, §23
# RET G691S = RET G691S (Homo sapiens, UniProt P07949, G691S); test: SelectScreen kinase profiling, LanthaScreen binding
# PKMYT1 = PKMYT1 (Homo sapiens, UniProt Q99640); test: as above; details: PKMYT1, 10 µM
# LRRK2 I2020T = LRRK2 I2020T (Homo sapiens, UniProt Q5S007, I2020T); test: SelectScreen kinase profiling, Adapta; assay type: biochemical
# CSNK1D (CK1 delta) = CSNK1D (CK1 delta) (Homo sapiens, UniProt P48730); test: SelectScreen kinase profiling, ZLYTE; assay type: biochemical
# RAF1 (cRAF) Y340D Y341D = RAF1 (cRAF) Y340D Y341D (Homo sapiens, UniProt P04049, Y340D/Y341D); test: SelectScreen kinase profiling, LanthaScreen binding
# PRKCA (PKC alpha) = PRKCA (PKC alpha) (Homo sapiens, UniProt P17252); test: SelectScreen kinase profiling, ZLYTE; assay type: biochemical
# YES1 = YES1 (Homo sapiens, UniProt P07947); test: SelectScreen kinase profiling, ZLYTE; assay type: biochemical; details: YES1, 10 µM
# RET M918T = RET M918T (Homo sapiens, UniProt P07949, M918T); test: SelectScreen kinase profiling, LanthaScreen binding
# RET = RET (Homo sapiens, UniProt P07949); test: SelectScreen kinase profiling, ZLYTE; assay type: biochemical
# Sequence of RET (P07949 29-1114): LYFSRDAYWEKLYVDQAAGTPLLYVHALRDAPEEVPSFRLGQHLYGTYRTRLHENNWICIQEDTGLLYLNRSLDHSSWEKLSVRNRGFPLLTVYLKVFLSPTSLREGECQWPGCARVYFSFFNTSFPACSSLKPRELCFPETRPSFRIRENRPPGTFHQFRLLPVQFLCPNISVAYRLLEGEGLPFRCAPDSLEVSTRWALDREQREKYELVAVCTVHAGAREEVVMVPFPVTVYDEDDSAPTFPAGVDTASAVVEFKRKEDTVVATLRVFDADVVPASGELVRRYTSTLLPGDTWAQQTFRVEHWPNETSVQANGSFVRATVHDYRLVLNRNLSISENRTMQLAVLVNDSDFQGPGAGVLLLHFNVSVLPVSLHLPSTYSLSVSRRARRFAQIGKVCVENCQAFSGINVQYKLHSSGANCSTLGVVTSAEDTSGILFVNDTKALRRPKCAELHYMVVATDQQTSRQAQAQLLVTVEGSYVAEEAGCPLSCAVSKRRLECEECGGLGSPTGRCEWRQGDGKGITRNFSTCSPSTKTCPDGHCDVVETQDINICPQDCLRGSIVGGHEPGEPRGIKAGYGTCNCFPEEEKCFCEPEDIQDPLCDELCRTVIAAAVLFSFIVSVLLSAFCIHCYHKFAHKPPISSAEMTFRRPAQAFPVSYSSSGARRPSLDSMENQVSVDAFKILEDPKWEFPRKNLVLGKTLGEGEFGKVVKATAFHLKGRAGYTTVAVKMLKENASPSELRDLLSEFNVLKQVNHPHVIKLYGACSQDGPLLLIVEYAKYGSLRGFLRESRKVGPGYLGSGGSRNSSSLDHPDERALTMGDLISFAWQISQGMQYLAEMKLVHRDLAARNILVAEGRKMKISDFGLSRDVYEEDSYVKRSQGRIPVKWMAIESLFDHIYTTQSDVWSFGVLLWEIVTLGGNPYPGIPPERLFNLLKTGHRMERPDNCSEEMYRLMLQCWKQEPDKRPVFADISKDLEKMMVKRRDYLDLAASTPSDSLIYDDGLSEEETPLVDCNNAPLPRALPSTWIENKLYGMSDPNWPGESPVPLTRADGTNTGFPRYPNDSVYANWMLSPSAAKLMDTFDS
# Sequence of PTK6 (Brk) (Q13882 whole entry): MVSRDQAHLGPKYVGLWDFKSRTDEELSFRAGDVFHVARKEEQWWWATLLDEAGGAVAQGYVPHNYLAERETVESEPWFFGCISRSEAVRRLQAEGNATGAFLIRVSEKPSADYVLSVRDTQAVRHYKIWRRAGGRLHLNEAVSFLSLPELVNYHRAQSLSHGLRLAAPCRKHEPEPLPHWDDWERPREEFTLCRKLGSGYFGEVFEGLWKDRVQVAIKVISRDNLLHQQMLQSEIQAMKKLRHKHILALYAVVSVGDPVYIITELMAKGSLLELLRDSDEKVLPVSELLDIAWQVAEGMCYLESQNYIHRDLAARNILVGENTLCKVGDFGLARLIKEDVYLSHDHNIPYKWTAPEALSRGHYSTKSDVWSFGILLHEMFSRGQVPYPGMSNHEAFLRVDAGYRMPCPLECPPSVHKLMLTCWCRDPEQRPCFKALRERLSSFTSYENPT
# Sequence of PKMYT1 (Q99640 whole entry): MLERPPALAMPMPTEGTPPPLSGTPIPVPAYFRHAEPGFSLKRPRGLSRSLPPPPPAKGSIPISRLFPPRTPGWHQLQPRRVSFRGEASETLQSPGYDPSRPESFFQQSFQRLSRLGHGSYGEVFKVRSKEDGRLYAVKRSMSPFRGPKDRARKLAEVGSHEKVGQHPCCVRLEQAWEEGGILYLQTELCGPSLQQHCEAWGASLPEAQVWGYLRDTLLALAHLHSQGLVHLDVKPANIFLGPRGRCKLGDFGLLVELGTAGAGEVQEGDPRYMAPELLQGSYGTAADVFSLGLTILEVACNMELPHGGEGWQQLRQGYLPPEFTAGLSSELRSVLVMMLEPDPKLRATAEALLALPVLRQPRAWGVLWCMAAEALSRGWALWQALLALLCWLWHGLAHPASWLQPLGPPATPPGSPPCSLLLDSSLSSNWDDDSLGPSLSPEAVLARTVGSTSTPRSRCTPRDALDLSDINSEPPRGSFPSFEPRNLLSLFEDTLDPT
# Sequence of LTK (TYK1) (P29376 17-864): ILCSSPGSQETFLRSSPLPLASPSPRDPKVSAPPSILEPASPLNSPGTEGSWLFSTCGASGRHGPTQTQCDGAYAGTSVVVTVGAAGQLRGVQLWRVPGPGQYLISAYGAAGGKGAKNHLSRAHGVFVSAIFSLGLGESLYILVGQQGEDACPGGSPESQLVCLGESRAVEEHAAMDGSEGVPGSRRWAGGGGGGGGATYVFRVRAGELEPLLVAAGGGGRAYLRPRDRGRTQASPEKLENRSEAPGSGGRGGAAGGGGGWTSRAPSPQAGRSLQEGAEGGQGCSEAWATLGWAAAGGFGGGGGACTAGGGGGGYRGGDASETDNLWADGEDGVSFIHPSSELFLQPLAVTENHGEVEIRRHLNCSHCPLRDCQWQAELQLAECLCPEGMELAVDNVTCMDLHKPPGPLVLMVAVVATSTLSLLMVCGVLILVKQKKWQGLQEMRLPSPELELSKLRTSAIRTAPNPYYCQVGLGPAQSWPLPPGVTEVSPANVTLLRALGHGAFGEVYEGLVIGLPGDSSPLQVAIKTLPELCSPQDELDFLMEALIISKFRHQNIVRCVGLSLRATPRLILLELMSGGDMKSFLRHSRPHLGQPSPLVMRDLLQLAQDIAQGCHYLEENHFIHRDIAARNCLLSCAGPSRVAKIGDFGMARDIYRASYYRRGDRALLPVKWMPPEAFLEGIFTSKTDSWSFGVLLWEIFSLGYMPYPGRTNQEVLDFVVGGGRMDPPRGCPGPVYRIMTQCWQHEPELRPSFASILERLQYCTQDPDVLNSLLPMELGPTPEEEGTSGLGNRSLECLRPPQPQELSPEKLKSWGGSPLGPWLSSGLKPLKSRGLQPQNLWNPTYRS
# Sequence of RET G691S (P07949 29-1114 G691S): as the sequence (P07949 29-1114) above, with G663S counted along it
# Sequence of MAP3K10 (MLK2) (Q02779 whole entry): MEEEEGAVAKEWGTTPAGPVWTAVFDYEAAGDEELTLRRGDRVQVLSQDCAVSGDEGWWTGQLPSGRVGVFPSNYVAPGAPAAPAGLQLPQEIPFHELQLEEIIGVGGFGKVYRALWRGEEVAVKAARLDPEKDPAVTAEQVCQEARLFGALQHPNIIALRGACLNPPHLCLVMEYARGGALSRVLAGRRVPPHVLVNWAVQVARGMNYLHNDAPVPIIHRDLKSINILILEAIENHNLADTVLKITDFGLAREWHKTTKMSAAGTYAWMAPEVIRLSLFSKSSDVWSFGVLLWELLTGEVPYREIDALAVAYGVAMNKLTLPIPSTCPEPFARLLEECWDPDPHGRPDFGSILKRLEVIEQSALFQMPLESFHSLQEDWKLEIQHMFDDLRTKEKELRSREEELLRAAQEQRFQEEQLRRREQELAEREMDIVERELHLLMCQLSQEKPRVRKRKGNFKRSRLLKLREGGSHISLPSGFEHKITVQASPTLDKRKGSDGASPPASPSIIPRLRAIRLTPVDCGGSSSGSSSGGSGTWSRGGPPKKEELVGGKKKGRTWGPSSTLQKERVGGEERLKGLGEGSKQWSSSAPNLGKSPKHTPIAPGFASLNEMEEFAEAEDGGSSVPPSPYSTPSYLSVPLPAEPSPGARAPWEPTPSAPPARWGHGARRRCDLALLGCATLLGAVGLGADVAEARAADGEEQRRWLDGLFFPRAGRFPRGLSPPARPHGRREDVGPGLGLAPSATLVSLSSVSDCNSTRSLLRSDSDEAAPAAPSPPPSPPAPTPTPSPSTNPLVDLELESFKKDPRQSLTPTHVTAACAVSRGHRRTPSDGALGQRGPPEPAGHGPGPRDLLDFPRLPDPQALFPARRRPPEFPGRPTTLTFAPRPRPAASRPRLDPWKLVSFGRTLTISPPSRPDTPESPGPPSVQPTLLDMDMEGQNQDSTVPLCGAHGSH
# Sequence of EPHA2 (P29317 24-976): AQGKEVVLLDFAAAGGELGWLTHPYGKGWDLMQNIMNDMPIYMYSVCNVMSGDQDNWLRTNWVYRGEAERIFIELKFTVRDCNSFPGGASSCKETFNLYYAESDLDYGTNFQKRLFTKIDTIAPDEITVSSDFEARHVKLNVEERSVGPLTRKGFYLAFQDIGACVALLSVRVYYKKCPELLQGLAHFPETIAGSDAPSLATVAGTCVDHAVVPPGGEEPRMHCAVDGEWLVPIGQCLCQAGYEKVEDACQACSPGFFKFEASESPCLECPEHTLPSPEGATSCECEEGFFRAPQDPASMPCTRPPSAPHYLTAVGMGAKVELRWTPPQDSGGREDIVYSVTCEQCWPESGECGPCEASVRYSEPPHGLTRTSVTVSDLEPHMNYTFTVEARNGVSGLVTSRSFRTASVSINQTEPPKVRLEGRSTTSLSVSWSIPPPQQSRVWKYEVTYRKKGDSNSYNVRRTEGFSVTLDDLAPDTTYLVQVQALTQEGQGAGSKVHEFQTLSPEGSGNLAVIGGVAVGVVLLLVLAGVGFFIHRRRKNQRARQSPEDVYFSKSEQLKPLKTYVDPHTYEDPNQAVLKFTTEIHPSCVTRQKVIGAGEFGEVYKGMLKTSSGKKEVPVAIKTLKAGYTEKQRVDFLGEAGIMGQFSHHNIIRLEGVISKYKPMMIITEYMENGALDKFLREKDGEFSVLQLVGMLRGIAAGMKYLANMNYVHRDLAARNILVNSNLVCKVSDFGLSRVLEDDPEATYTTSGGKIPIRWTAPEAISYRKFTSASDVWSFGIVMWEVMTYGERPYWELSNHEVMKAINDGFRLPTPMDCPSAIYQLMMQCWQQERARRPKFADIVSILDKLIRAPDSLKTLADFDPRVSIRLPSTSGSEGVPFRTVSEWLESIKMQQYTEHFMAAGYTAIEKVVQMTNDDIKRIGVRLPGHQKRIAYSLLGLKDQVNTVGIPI
# Sequence of RET M918T (P07949 29-1114 M918T): as the sequence (P07949 29-1114) above, with M890T counted along it
smiles,measurement,setting,value
O=C(c1ccc(/C=C/c2n[nH]c3ccccc23)cc1)N1CCNCC1 [KW-2449],inhibition at 10 µM,EPHA2,98%
same,inhibition at 10 µM,MAPK8 (JNK1),96%
same,inhibition at 10 µM,ROS1,98%
same,inhibition at 10 µM,ALK L1196M,13%
same,inhibition at 10 µM,BRAF,67%
same,inhibition at 10 µM,MAP3K10 (MLK2),87%
same,inhibition at 10 µM,ICK,74%
same,inhibition at 10 µM,DCAMKL1 (DCLK1),57%
same,inhibition at 10 µM,JAK2 JH1 JH2,96%
same,inhibition at 10 µM,PI4K2B (PI4K2 beta),-1%
same,inhibition at 10 µM,SPHK1,17%
same,inhibition at 10 µM,PHKG1,100%
same,inhibition at 10 µM,PRKCD (PKC delta),25%
same,inhibition at 10 µM,PRKACG (PRKAC gamma),18%
same,inhibition at 10 µM,LTK (TYK1),90%
same,inhibition at 10 µM,PTK6 (Brk),71%
same,inhibition at 10 µM,MST1R (RON),97%
same,inhibition at 10 µM,GRK5,17%
same,inhibition at 10 µM,PTK2 (FAK),95%
same,inhibition at 10 µM,PLK2,35%
same,inhibition at 10 µM,BTK,99%
same,inhibition at 10 µM,INSRR (IRR),96%
same,inhibition at 10 µM,RET G691S,-30%
same,inhibition at 10 µM,PKMYT1,-61%
same,inhibition at 10 µM,LRRK2 I2020T,100%
same,inhibition at 10 µM,CSNK1D (CK1 delta),53%
same,inhibition at 10 µM,RAF1 (cRAF) Y340D Y341D,0%
same,inhibition at 10 µM,PRKCA (PKC alpha),61%
same,inhibition at 10 µM,YES1,95%
same,inhibition at 10 µM,RET M918T,-40%
same,inhibition at 10 µM,RET,101%
